From US20090068210A1, “IMMUNOTHERAPY FOR HEMATOLOGICAL MALIGNANCIES” (priority 2007, published 2009)

Columns and labels:
[1] = cited from earlier work; for Hygroscopicity: polymorphic form; for Interconversion in solvent systems: interconversion studies
iNKT cells [2] = experiment: Cytokine production (ELISA) by iNKT cells co-cultured with antigen presenting cells (MM1S.CD1d cells or DCs), with or without α-GalCer; assay type: cell-based, human
iNKT cells [3] = experiment: as above; assay type: cell-based, human; remark: listed apart in the source
Protocol: 1×10^5 NKT cells from MM patients were plated in a 96-well plate with MM1S.CD1d cells or DCs at ratios of 2:1 and 4:1, respectively, with or without pre-loaded α-GalCer (100 ng/ml). 1-Oxo-2-(2,6-dioxopiperidin-3-yl)-4-aminoisoindoline (2 μM) was used as indicated, with DMSO as control. The supernatant was collected at 48 and 72 hours and the levels of IFN-γ, IL-2 and IL-4 were determined by ELISA (R&D Systems, Minneapolis, Minn.).

[4] = iNKT cells + MM1S.CD1d cells in the absence of α-GalCer, compound 2 μM, ELISA
[5] = iNKT cells + α-GalCer-loaded MM1S.CD1d cells, compound 2 μM vs controls (DMSO), ELISA

SMILES: Nc1cccc2c1CN(C1CCC(=O)NC1=O)C2=O (stereo not shown) [Form D, 3-(4-amino-1-oxo-1,3 dihydro-isoindol-2-yl)-piperidene-2,6-dione]
- Hygroscopicity [1]: either weakly or not hygroscopic

SMILES: Nc1cccc2c1CN(C1CCC(=O)NC1=O)C2=O (stereo not shown) [Form A, 3-(4-amino-1-oxo-1,3 dihydro-isoindol-2-yl)-piperidene-2,6-dione]
- Relative stability among polymorphs ([1]; Form A: anhydrous polymorphs, Form E: aqueous solvent systems): most thermodynamically stable anhydrous polymorph
- Hygroscopicity [1]: weakly or not hygroscopic

SMILES: Nc1cccc2c1CN(C1CCC(=O)NC1=O)C2=O (stereo not shown) [Form E, 3-(4-amino-1-oxo-1,3 dihydro-isoindol-2-yl)-piperidene-2,6-dione]
- Conversion upon heating (desolvation) ([1]; about 125° C. for about five minutes): can convert to Form B
- Interconversion in solvent systems [1]: can convert to Form C in an acetone solvent system and to Form G in a THF solvent system

SMILES: Nc1cccc2c1CN(C1CCC(=O)NC1=O)C2=O (stereo not shown) [1-oxo-2-(2,6-dioxopiperidin-3-yl)-4-aminoisoindoline]
- Increase in IFN-γ and IL-2 levels and decrease in IL-4 level (iNKT cells [2]; CD1d-transfected C1R cells as antigen presenting cells): confirmed
- Direct stimulation of iNKT cells (iNKT cells [2]; iNKT cells alone or co-cultured with mock MM.1S cells, with or without α-GalCer): did not directly stimulate
- IL-4 level (iNKT cells [3]; iNKT cells + CD1d expressing multiple myeloma cells without α-GalCer, compound vs cells alone): decrease
- IFN-γ production (iNKT cells [3]; [4]): increase
- IL-2 production (iNKT cells [3]; [4]): increase
- IFN-γ level (iNKT cells [3]; [5]): significant increase
- IL-2 level (iNKT cells [3]; [5]): significant increase
- IL-4 level (iNKT cells [3]; [5]): decrease

SMILES: Nc1cccc2c1CN(C1CCC(=O)NC1=O)C2=O (stereo not shown) [Form C, 3-(4-amino-1-oxo-1,3 dihydro-isoindol-2-yl)-piperidene-2,6-dione]
- Hygroscopicity [1]: not hygroscopic below about 85% RH

SMILES: Nc1cccc2c1CN(C1CCC(=O)NC1=O)C2=O (stereo not shown) [Form B, 3-(4-amino-1-oxo-1,3 dihydro-isoindol-2-yl)-piperidene-2,6-dione]
- Conversion upon heating ([1]; 175° C. for about five minutes): can convert to Form F
- Interconversion in solvent systems [1]: converts to Form E in aqueous solvent systems
